Patent US11629171B2, “Beta-hairpin peptidomimetics” (POLYPHOR AG, priority 2017, dated 2023)
Converted amounts (≈) assume the structure as drawn. Where a SMILES comes first, the peptide text is derived from it. Bridges are numbered along the chain shown (N, C = ends). Roman numbers before positions name the chains, in order. [ ]: non-standard residue; d: D form. The star is where a group is joined. Tyrosinol = OC[C@H](Cc1ccc(O)cc1)N*; Tle = CC(C)(C)[C@H](N)C(=O)O; Hiv = CC(C)[C@H](O)C(=O)O; dDab = NCC[C@@H](N)C(=O)O; hSer = N[C@@H](CCO)C(=O)O; Orn = NCCC[C@H](N)C(=O)O; Dab = NCC[C@H](N)C(=O)O; Abu = CC[C@H](N)C(=O)O; Dap = NC[C@H](N)C(=O)O

Assays:
[1] = system: Acinetobacter baumannii 872842; format: cell-based; settings: 872842
Method in brief: (§1)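 Cation-adjusted MH-II broth, 0.002% polysorbate 80, inoculum near 10^6 CFU/mL. MIC read visually after 18-20 h, 35° C; units μg/mL.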

[2] = system: Acinetobacter baumannii DSM 30008; format: cell-based; settings: DSM 30008
Method in brief: as §1

[3] = system: Enterobacter cloacae 848840; format: cell-based; settings: 848840
Method in brief: as §1

Escherichia coli 926415 = format: cell-based; settings: 926415
Method in brief: as §1

[4] = system: Escherichia coli ATCC 25922; format: cell-based; settings: ATCC 25922
Method in brief: as §1

[5] = system: Klebsiella pneumoniae 968733; format: cell-based; settings: 968733
Method in brief: as §1

[6] = system: Klebsiella pneumoniae SSI #3010; format: cell-based; settings: SSI #3010
Method in brief: as §1

[7] = system: Pseudomonas aeruginosa ATCC 27853; format: cell-based; settings: ATCC 27853
Method in brief: as §1

[8] = system: human red blood cells (hRBC); experiment: Hemolysis; format: cell-based; settings: red cells of human, 1 h, 200
Method in brief: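 Washed fresh hRBC (20% v/v) were incubated with peptides at 200 μg/mL for 1 h at 37° C with shaking at 300 rpm. Supernatant OD540 was read after centrifugation and dilution, blank-corrected, and expressed as percent of the 2% Triton X-100 (100% lysis) control; PBS with 10% water gave 0%.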

male ICR mice = experiment: Tolerability in a mouse model (Maximum Tolerated Dose assay); format: in vivo; settings: groups of 3
Method in brief: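 Peptides in 0.9% NaCl (pH 6.5-7.6) given s.c. at 30 or 40 mg/kg, twice 12 h apart, to groups of 3 male ICR mice (23±3 g). Acute toxic signs (mortality, convulsions, tremors, sedation) and autonomic effects (diarrhea, salivation, piloerection) observed for 30 min after each dose.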

[9] = 2 × 30 mg/kg s.c. at a 12-hr interval
[10] = 2 × 40 mg/kg s.c. at a 12-hr interval

SMILES | MIC [1] [µg/mL] | MIC [2] [µg/mL] | MIC [3] [µg/mL] | MIC (Escherichia coli 926415) [µg/mL] | MIC [4] [µg/mL] | MIC [5] [µg/mL] | MIC [6] [µg/mL] | MIC [7] [µg/mL] | Hemolysis at 200 μg/mL [8] [%] | Mortality and dose (male ICR mice; [9]) | Acinetobacter baumannii DSM 30008 MIC [2] [µg/mL] | Escherichia coli ATCC 25922 MIC [4] [µg/mL] | Klebsiella pneumoniae SSI #3010 MIC [6] [µg/mL] | Pseudomonas aeruginosa ATCC 27853 MIC [7] [µg/mL] | Mortality and dose (male ICR mice; [10])
CC[C@@H]1NC(=O)[C@@H](CC(C)C)NC(=O)[C@H](CCN)NC(=O)[C@@H](NC(=O)[C@H](CN)NC(=O)[C@@H](NC(=O)[C@H](CCN)NC(=O)CC[C@@H]2NC(=O)[C@H](CO)NC(=O)[C@H](Cc3ccc(O)cc3)NC(=O)[C@@H](NC(=O)[C@@H](NC(C)=O)C(C)C)CSSC[C@@H](C(=O)N[C@@H](CO)C(N)=O)NC(=O)[C@H]([C@@H](C)CC)NC(=O)[C@H](CO)NC(=O)[C@H](Cc3c[nH]c4ccccc34)NC(=O)[C@H](CO)NC(=O)[C@@H](CCN)NC2=O)[C@@H](C)O)CCNC(=O)[C@H]([C@@H](C)O)NC(=O)[C@H](CCN)NC(=O)[C@H](CCN)NC1=O [Ex. 260] (I: Ac-VCYSE[dDab]SWSICS-NH2 / II: [Dab]T[Dap][Dab][Dab][dL][Abu][Dab][Dab]T; disulfide I:2-I:11; amide I:5-II:N; lactam II:4-II:C) | 0.0625 (≈ 0.0264 µM) | 0.01562 (≈ 0.00659 µM) | 0.0625 (≈ 0.0264 µM) | 0.5 (≈ 0.211 µM) | 0.01562 (≈ 0.00659 µM) | 0.5 (≈ 0.211 µM) | 0.0625 (≈ 0.0264 µM) | 0.0625 (≈ 0.0264 µM) | <1 | 0/3 died at 2 × 30 mg/kg |  |  |  |  | 
CC(=O)N[C@H](C(=O)N[C@H]1CCNC(=O)C[C@@H](C(=O)N[C@@H](CO)C(N)=O)NC(=O)[C@H](C(C)C)NC(=O)[C@H](CO)NC(=O)[C@H](Cc2c[nH]c3ccccc23)NC(=O)[C@H](CO)NC(=O)[C@@H](CCN)NC(=O)[C@H](CCC(=O)N[C@@H](CCN)C(=O)N[C@H](C(=O)N[C@@H](CN)C(=O)N[C@H]2CCNC(=O)[C@H]([C@@H](C)O)NC(=O)[C@H](CCN)NC(=O)[C@H](CCN)NC(=O)[C@H](CC(C)C)NC(=O)[C@@H](CC(C)C)NC(=O)[C@H](CCN)NC2=O)[C@@H](C)O)NC(=O)[C@H](CCN)NC(=O)[C@H](Cc2ccc(O)cc2)NC1=O)C(C)C [Ex. 341] (I: Ac-V[Dab]Y[Dab]E[dDab]SWSVDS-NH2 / II: [Dab]T[Dap][Dab][Dab][dL]L[Dab][Dab]T; lactam I:2-I:11, II:4-II:C; amide I:5-II:N) | 0.25 (≈ 0.105 µM) |  | 2 (≈ 0.836 µM) | 0.5 (≈ 0.209 µM) |  | 1 (≈ 0.418 µM) |  |  | <1 |  | 0.0625 | 0.0625 | 0.0625 | 0.125 | 0/3 died at 2 × 40 mg/kg
CC(C)C[C@@H]1NC(=O)[C@@H](CC(C)C)NC(=O)[C@H](CCN)NC(=O)[C@@H](NC(=O)[C@H](CCN)NC(=O)[C@@H](NC(=O)[C@H](CCN)NC(=O)CC[C@@H]2NC(=O)[C@H](CCN)NC(=O)[C@H](C(C)C)NC(=O)[C@@H](NC(=O)[C@@H](O)C(C)C)CSSC[C@@H](C(=O)N[C@H](CO)Cc3ccc(O)cc3)NC(=O)[C@H](C(C)(C)C)NC(=O)[C@H](CO)NC(=O)[C@H](Cc3c[nH]c4ccccc34)NC(=O)[C@H](CCO)NC(=O)[C@@H](CCN)NC2=O)[C@@H](C)O)CCNC(=O)[C@H]([C@@H](C)O)NC(=O)[C@H](CCN)NC(=O)[C@H](CCN)NC1=O [Ex. 92] (I: H-[Hiv]CV[Dab]E[dDab][hSer]WS[Tle]C-Tyrosinol / II: [Dab]T[Dab][Dab][Dab][dL]L[Dab][Dab]T; disulfide I:2-I:11; amide I:5-II:N; lactam II:4-II:C) | 0.125 (≈ 0.0521 µM) | 0.125 (≈ 0.0521 µM) | 0.25 (≈ 0.104 µM) | 0.0625 (≈ 0.0261 µM) | 0.0625 (≈ 0.0261 µM) | 0.125 (≈ 0.0521 µM) | 0.0625 (≈ 0.0261 µM) | 0.125 (≈ 0.0521 µM) | <1 | 0/3 died at 2 × 30 mg/kg |  |  |  |  | 
CC[C@@H]1NC(=O)[C@@H](CC(C)C)NC(=O)[C@H](CCN)NC(=O)[C@@H](NC(=O)[C@H](CCN)NC(=O)[C@@H](NC(=O)[C@H](CCN)NC(=O)CC[C@@H]2NC(=O)[C@H](CCN)NC(=O)[C@H](Cc3ccc(O)cc3)NC(=O)[C@@H](NC(=O)[C@@H](NC(C)=O)C(C)C)CSSC[C@@H](C(=O)N[C@@H](CO)C(N)=O)NC(=O)[C@H](C(C)C)NC(=O)[C@H](CO)NC(=O)[C@H](Cc3c[nH]c4ccccc34)NC(=O)[C@H](CO)NC(=O)[C@@H](CCN)NC2=O)[C@@H](C)O)CCNC(=O)[C@H]([C@@H](C)O)NC(=O)[C@H](CCN)NC(=O)[C@H](CCN)NC1=O [Ex. 332] (I: Ac-VCY[Dab]E[dDab]SWSVCS-NH2 / II: [Dab]T[Dab][Dab][Dab][dL][Abu][Dab][Dab]T; disulfide I:2-I:11; amide I:5-II:N; lactam II:4-II:C) | 0.25 (≈ 0.105 µM) |  | 0.125 (≈ 0.0524 µM) | 0.25 (≈ 0.105 µM) |  | 0.5 (≈ 0.21 µM) |  |  | 2 |  | 0.0625 | 0.03125 | 0.0625 | 0.25 | 0/3 died at 2 × 40 mg/kg
CC(=O)N[C@H](C(=O)N[C@H](C(=O)N[C@@H](Cc1ccc(O)cc1)C(=O)N[C@H]1CSSC[C@@H](C(=O)N[C@H](C(=O)N[C@@H](C)C(=O)N[C@H](C(N)=O)[C@@H](C)O)C(C)C)NC(=O)[C@H](Cc2c[nH]c3ccccc23)NC(=O)[C@H](CO)NC(=O)[C@@H](CCN)NC(=O)[C@H](CCC(=O)N[C@@H](CCN)C(=O)N[C@H](C(=O)N[C@@H](CN)C(=O)N[C@H]2CCNC(=O)[C@H]([C@@H](C)O)NC(=O)[C@H](CCN)NC(=O)[C@H](CCN)NC(=O)[C@H](CC(C)C)NC(=O)[C@@H](CC(C)C)NC(=O)[C@H](CCN)NC2=O)[C@@H](C)O)NC1=O)[C@@H](C)O)C(C)C [Ex. 219] (I: Ac-VTYCE[dDab]SWCVAT-NH2 / II: [Dab]T[Dap][Dab][Dab][dL]L[Dab][Dab]T; disulfide I:4-I:9; amide I:5-II:N; lactam II:4-II:C) | 0.125 (≈ 0.0521 µM) | 0.03125 (≈ 0.013 µM) | 0.125 (≈ 0.0521 µM) | 0.25 (≈ 0.104 µM) | 0.03125 (≈ 0.013 µM) | 0.5 (≈ 0.209 µM) | 0.0625 (≈ 0.0261 µM) | 0.125 (≈ 0.0521 µM) | <1 | 0/3 died at 2 × 30 mg/kg |  |  |  |  | 
CC[C@@H]1NC(=O)[C@@H](CC(C)C)NC(=O)[C@H](CCN)NC(=O)[C@@H](NC(=O)[C@H](CN)NC(=O)[C@@H](NC(=O)[C@H](CCN)NC(=O)CC[C@@H]2NC(=O)[C@H](CCN)NC(=O)[C@H](Cc3ccc(O)cc3)NC(=O)[C@@H](NC(=O)[C@@H](NC(C)=O)C(C)C)CSSC[C@@H](C(=O)N[C@@H](CO)C(N)=O)NC(=O)[C@H]([C@@H](C)CC)NC(=O)[C@H](CO)NC(=O)[C@H](Cc3c[nH]c4ccccc34)NC(=O)[C@H](CO)NC(=O)[C@@H](CCN)NC2=O)[C@@H](C)O)CCNC(=O)[C@H]([C@@H](C)O)NC(=O)[C@H](CCN)NC(=O)[C@H](CCN)NC1=O [Ex. 338] (I: Ac-VCY[Dab]E[dDab]SWSICS-NH2 / II: [Dab]T[Dap][Dab][Dab][dL][Abu][Dab][Dab]T; disulfide I:2-I:11; amide I:5-II:N; lactam II:4-II:C) | 0.0625 (≈ 0.0262 µM) |  | 0.0625 (≈ 0.0262 µM) | 0.0625 (≈ 0.0262 µM) |  | 0.125 (≈ 0.0524 µM) |  |  | <1 |  | 0.03125 | 0.03125 | 0.03125 | 0.125 | 0/3 died at 2 × 40 mg/kg
CC(C)C[C@@H]1NC(=O)[C@@H](CC(C)C)NC(=O)[C@H](CCN)NC(=O)[C@@H](NC(=O)[C@H](CN)NC(=O)[C@@H](NC(=O)[C@H](CCN)NC(=O)CC[C@H]2NC(=O)[C@H](CCCN)NC(=O)[C@H](CCN)NC(=O)[C@H](Cc3ccc(O)cc3)NC(=O)[C@@H](NC(=O)[C@@H](O)C(C)C)CSSC[C@@H](C(=O)N[C@H](C(N)=O)[C@@H](C)O)NC(=O)[C@H](C(C)(C)C)NC(=O)[C@H](CO)NC(=O)[C@H](Cc3c[nH]c4ccccc34)NC(=O)[C@H]([C@@H](C)O)NC2=O)[C@@H](C)O)CCNC(=O)[C@H]([C@@H](C)O)NC(=O)[C@H](CCN)NC(=O)[C@H](CCN)NC1=O [Ex. 161] (I: H-[Hiv]CY[Dab][Orn][dE]TWS[Tle]CT-NH2 / II: [Dab]T[Dap][Dab][Dab][dL]L[Dab][Dab]T; disulfide I:2-I:11; amide I:6-II:N; lactam II:4-II:C) | 0.25 (≈ 0.104 µM) | 0.125 (≈ 0.0518 µM) | 1 (≈ 0.414 µM) | 0.5 (≈ 0.207 µM) | 0.125 (≈ 0.0518 µM) | 0.25 (≈ 0.104 µM) | 0.125 (≈ 0.0518 µM) | 0.25 (≈ 0.104 µM) | 1 | 0/3 died at 2 × 30 mg/kg |  |  |  |  | 
